{Fam-L(1)L(1)} = N-terminal fluorescein (Fam) label attached through two L(1) linkers; {Fam-L(2)} = N-terminal fluorescein (Fam) label attached through linker L(2); {Lys-NH2} = C-terminal lysine amide
Key:
apoB-100 = conditions: a certain population of atherosclerosis patients; cited from earlier work
MCF-7 cells = assay: Cell penetration of fluorescein-tagged PNA oligomers, confocal fluorescence microscopy; format: cell-based, human; conditions: 2.5 μM, 0.5 and 1 h, without FBS, 63× objective
Experimental: (§1) In order to evaluate the cell penetration ability of PNA oligomers of this invention, cancer cells of human origin were treated with PNA oligomers covalently tagged with fluorescein. The applied method is provided in brief as follows.
(§2) To each cover glass (autoclaved) placed in each well of a 24-well plate, were seeded 20,000˜100,000 cells depending on the growth rate of the cell line used, and the cells were cultured at 37° C. and 5% CO2 for 16 to 24 h. Then the medium was replaced with 500 μl fresh Opti-MEM medium (with or without 1% FBS), to which was added an aliquot of aq stock solution of a PNA oligomer covalently tagged with fluorescein. After cells were cultured for a designated interval, the cells were washed with PBS, and fixed by incubating in 3.7% or 4% paraformaldehyde. The cells were thoroughly washed several times with PBS or PBS containing 0.1% Tween-20. Then the cover glass was mounted onto a slide glass using a drop of mounting solution and sealed with nail polish for confocal fluorescence microscopy. Fluorescence images were taken either on a Zeiss LSM 510 confocal microscope (Germany) at 63× objective or on a Nikon C1Si confocal microscope at 40× objective.

A549 cells = assay: as above; format: cell-based, human; conditions: 2 μM, 24 h, without FBS, 40× objective
Experimental: as §1, §2

HeLa cells = assay: as above; format: cell-based, human; conditions: 40× objective
Experimental: as §1, §2

JAR cells = assay: as above; format: cell-based, human; conditions: 2 μM, 24 h, without FBS, 40× objective
Experimental: as §1, §2

Substance | cell penetration, fluorescence intensity (MCF-7 cells) | cell penetration, fluorescence intensity (A549 cells) | cell penetration, fluorescence intensity (JAR cells) | other results
Mipomersen |  |  |  | clinical activity (apoB-100): due clinical activity
Fam-L(1)L(1)-TCT-CCC-AGC-GTG-CGC-CAT-Lys-NH2 (TCTCCCAGCGTGCGCCAT; all peptide nucleic acid (PNA), 5' {Fam-L(1)L(1)}, 3' {Lys-NH2}) [Oligo 7, fluorescein-tagged 'unmodified' PNA oligomer, reference compound] | fluorescence intensity is faint |  |  | 
Fam-L(2)-TT-C(1O2)AT-A(5)GT-A(5)TA-AG(5)T-Lys-NH2 (TTCATAGTATAAGT; Fam-L(2) label, modified PNA, Lys-NH2, chemistry not fully specified) [Oligo 22, fluorescein-tagged modified PNA oligomer] |  | good cell penetration | good cell penetration | cell penetration, fluorescence intensity (HeLa cells; 2 μM, 24 h, without FBS): good cell penetration
Fam-L(2)-TGG-CAA-CTG-AT-Lys-NH2 (TGGCAACTGAT; all peptide nucleic acid (PNA), 5' {Fam-L(2)}, 3' {Lys-NH2}) [Oligo 28, fluorescein-tagged 'unmodified' PNA oligomer, reference compound] |  | no significant fluorescence intensity | no significant fluorescence intensity | cell penetration, fluorescence intensity (HeLa cells; 2 μM, 12 h, without FBS): no significant fluorescence intensity
Fam-L(1)L(1)-TC(1O3)T-CC(1O3)C-AGC(1O3)-GTG-C(1O3)GC-C(1O3)AT-Lys-NH2 (TCTCCCAGCGTGCGCCAT; Fam-L(1)L(1) label, modified PNA, Lys-NH2, chemistry not fully specified) [Oligo 6, fluorescein-tagged modified PNA oligomer] | fluorescence intensity is clear and becomes intense over 1 h |  |  | cell penetration, fluorescence intensity (HeLa cells; 1 μM, 6 or 24 h, with 1% FBS): fluorescence intensity is clear and becomes intense over 24 h
